Test results from patent publication US20240041042A1, “1-(PYRIDYL)-5-AZINYLPYRAZOLE DERIVATIVES, AND THEIR USE FOR CONTROL OF UNDESIRED PLANT GROWTH” (Bayer Aktiengesellschaft, priority 2020, published 2024).
Where two headings read alike, the source gives them in different places.

Tests used:
Type in all cases: in vivo
Avena fatua (AVEFA) [1] = assay: Pre-emergence herbicidal action against AVEFA; conditions: 320 g/ha, visual scoring after about 3 weeks vs untreated controls
Method in brief: (§1)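 Seeds sown in pots and covered with soil; WP or EC formulations sprayed onto the soil surface at 600 l/ha water with 0.5% additive, at 320 g/ha or lower. Greenhouse growth for about 3 weeks, then visual scoring as % effect against untreated controls (100% = plants dead).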

[2] = system: Polygonum convolvulus (POLCO); assay: Post-emergence herbicidal action against POLCO; conditions: dosage 80 g/ha
Method in brief: (§2)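 Post-emergence greenhouse spray, one-leaf stage, 600 l/ha water plus 0.5% additive; WP or EC formulations; application rates 320 g/ha or lower. Visual % damage vs untreated controls at ~3 weeks.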

[3] = system: Abutilon theophrasti (ABUTH); assay: Pre-emergence herbicidal action against ABUTH; conditions: Dosage column 320 g/ha (title prints 3200 g/ha); scored visually after about 3 weeks; 100% = plants have died
Method in brief: as §1

[4] = system: Verconica persica (VERPE); assay: Post-emergence herbicidal action against VERPE; conditions: dosage 80 g/ha
Method in brief: as §2

[5] = system: Pharbitis purpurea (PHBPU); assay: Post-emergence herbicidal action against PHBPU; conditions: dosage 80 g/ha
Method in brief: as §2

[6] = system: Matricaria inodora (MATIN); assay: Pre-emergence herbicidal action against MATIN
Method in brief: as §1

[7] = system: Echinochloa crus-galli (ECHCG); assay: Pre-emergence herbicidal action against ECHCG
Method in brief: as §1

[8] = system: Echinochloa crus-galli (ECHCG); assay: Post-emergence herbicidal action against ECHCG; conditions: dosage 80 g/ha
Method in brief: as §2

[9] = system: Pharbitis purpurea (PHBPU); assay: Pre-emergence herbicidal action against PHBPU
Method in brief: as §1

Viola tricolor (VIOTR) = assay: Pre-emergence herbicidal action against VIOTR
Method in brief: as §1

Setaria viridis (SETVI) [10] = assay: Post-emergence herbicidal action against SETVI; conditions: dosage 80 g/ha
Method in brief: as §2

[11] = system: Alopecurus myosuroides (ALOMY); assay: Post-emergence herbicidal action against ALOMY; conditions: 80 g/ha, visual rating about 3 weeks after treatment vs untreated controls (100% = plants have died, 0% = like control plants)
Method in brief: as §2

[12] = system: Matricaria inodora (MATIN); assay: Post-emergence herbicidal action against MATIN; conditions: dosage 80 g/ha
Method in brief: as §2

Zea mays (ZEAMX) = system: Zea mays (ZEAMX)
Method in brief: (§3)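 One-leaf-stage crops (2–3 wk post-sowing, sandy loam, greenhouse) sprayed on green parts; 0.5% additive, 600 l/ha water. Rated by eye ~3 wk later, % vs untreated; suffixes a/b/c mark different dosages.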

Oryza sativa (ORYSA) = conditions: crop plant compatibility
Method in brief: as §3

[13] = system: Alopecurus myosuroides (ALOMY); assay: Pre-emergence herbicidal action against ALOMY; conditions: scored visually after about 3 weeks, 100% = plants have died
Method in brief: as §1

[14] = system: Amaranthus retroflexus (AMARE); assay: Post-emergence herbicidal action against AMARE; conditions: 80 g/ha, visual rating about 3 weeks after treatment vs untreated controls (100% = plants have died, 0% = like control plants)
Method in brief: as §2

Setaria viridis (SETVI) [15] = assay: Pre-emergence herbicidal action against SETVI
Method in brief: as §1

Lolium rigidum (LOLRI) = assay: Pre-emergence herbicidal action against LOLRI
Method in brief: as §1

[16] = system: Abutilon theophrasti (ABUTH); assay: Post-emergence herbicidal action against ABUTH; conditions: 80 g/ha, visual rating about 3 weeks after treatment vs untreated controls (100% = plants have died, 0% = like control plants)
Method in brief: as §2

[17] = system: Amaranthus retroflexus (AMARE); assay: Pre-emergence herbicidal action against AMARE; conditions: visual scoring after about 3 weeks vs untreated controls
Method in brief: as §1

[18] = system: Polygonum convolvulus (POLCO); assay: Pre-emergence herbicidal action against POLCO
Method in brief: as §1

Avena fatua (AVEFA) [19] = assay: Post-emergence herbicidal action against AVEFA; conditions: 80 g/ha, visual rating about 3 weeks after treatment
Method in brief: as §2

[20] = system: Verconica persica (VERPE); assay: Pre-emergence herbicidal action against VERPE; conditions: dosage 320 g/ha
Method in brief: as §1

In the case of `O=C(O)COc1nn(-c2ccccn2)c(-c2cncc(F)c2)c1Cl` [Example I-81], the “Pre-emergence action against AVEFA in %” value (Avena fatua (AVEFA) [1]) is reported as 80%, the “Post-emergence action against POLCO in %” value [2] is reported as 80% and the “Pre-emergence action against ABUTH” value [3] is reported as 90%. For the same compound, the “Post-emergence action against VERPE in %” value [4] was 90%, the “Post-emergence action against PHBPU in %” value [5] was 90% and the “Pre-emergence action against MATIN in %” value ([6]; dosage 80 g/ha) was 80%. The “Pre-emergence action against MATIN in %” value ([6]; dosage 320 g/ha) was 90%, the “Pre-emergence action against ECHCG in %” value ([7]; dosage 80 g/ha) was 90% and the “Pre-emergence action against ECHCG in %” value ([7]; dosage 320 g/ha) was 100%. The “Post-emergence action against ECHCG in %” value [8] was 90%, the “Pre-emergence action against PHBPU in %” value ([9]; dosage 80 g/ha) was 90% and the “Pre-emergence action against PHBPU in %” value ([9]; dosage 320 g/ha) was 100%. The “Pre-emergence action against VIOTR in %” value (Viola tricolor (VIOTR); 320 g/ha, Viola tricolor) was 100%, the “Pre-emergence action against VIOTR in %” value (Viola tricolor (VIOTR); dosage 80 g/ha) was 80% and the “Post-emergence action against SETVI in %” value (Setaria viridis (SETVI) [10]) was 80%. The “Post-emergence action against ALOMY in %” value [11] was 90%, the “Post-emergence action against MATIN in %” value [12] was 90% and the “Post-emergence action against ZEAMX in % (crop plant compatibility)” value (Zea mays (ZEAMX); 20 g/ha, ZEAMX, effect in comparison to untreated controls) was 0%. The “Post-emergence action against ZEAMX in %” value (Zea mays (ZEAMX); crop plant compatibility, 80 g/ha, effect vs untreated controls) was 0%, the “Post-emergence action against ORYSA in %” value (Oryza sativa (ORYSA); 20 g/ha, effect vs untreated controls) was 0% and the “Post-emergence action against ORYSA in %” value (Oryza sativa (ORYSA); 80 g/ha, effect in comparison to untreated controls) was 0%. The “Pre-emergence action against ALOMY” value ([13]; 80 g/ha) was 80%, the “Pre-emergence action against ALOMY” value ([13]; 320 g/ha) was 100% and the “Post-emergence action against AMARE in %” value [14] was 90%. For the same compound, the “Pre-emergence action against SETVI in %” value (Setaria viridis (SETVI) [15]; dosage 80 g/ha) was 90%, the “Pre-emergence action against SETVI in %” value (Setaria viridis (SETVI) [15]; dosage 320 g/ha) was 100% and the “Pre-emergence action against LOLRI in %” value (Lolium rigidum (LOLRI); dosage 80 g/ha) was 90%. For the same compound, the “Pre-emergence action against LOLRI in %” value (Lolium rigidum (LOLRI); dosage 320 g/ha) was 100%, the “Post-emergence action against ABUTH in %” value [16] was 80% and the “Pre-emergence action against AMARE in %” value ([17]; 80 g/ha) was 80%. For the same compound, the “Pre-emergence action against AMARE in %” value ([17]; 320 g/ha) was 90%, the “Pre-emergence action against POLCO in %” value ([18]; dosage 80 g/ha) was 90% and the “Pre-emergence action against POLCO in %” value ([18]; dosage 320 g/ha) was 90%. The “Post-emergence action against AVEFA in %” value (Avena fatua (AVEFA) [19]) was 90% and the “Pre-emergence action against VERPE in %” value [20] was 90%.
